Source: patent US12514845B2, “Ionic-liquid-based formulations for the prevention or treatment of neurological diseases” (Universidade De Aveiro, priority 2022, dated 2026)

What was measured:
in vitro = conditions: rat
Method: (§1) The data are presented as percentage of control and presented as the mean±SEM of at least five repetitions of three independent experiments (n=3). Statistical analysis was performed using one-way ANOVA (non-parametric analysis), followed by the Kruskal-Wallis test, followed by Dunn's multiple comparison test. **p<0.01 compared to CTR or the group of cells exposed to cholinium chloride only +++p<0.001 compared to 6OHDA.

[1] = tested on: dopaminergic neurons in the substantia nigra (SN); experiment: 6OHDA intrastriatal injection mouse model of PD, TH+ neuron count in SN; assay type: in vivo; conditions: 6-OHDA 10 μg/2 μL right striatum, day 7, vs control group (FIG. 10)
Method: In an embodiment, the biological neuroprotective effect of [Chol]2[N1(4)inh]+N1(4)inh+N1(4)inh when administrated via brain intraventricular infusion route was evaluated in an mouse model for PD induced by the intracerebral injection of 6OHDA, and the number of dopaminergic neurons in the substantia nigra counted.
In an embodiment, Male C57BL/6 mice were anesthetized and placed in the digital stereotaxic frame. Once the mouse skull was exposed, and using a digital coordinates system, injection and infusion sites were determined setting the zero at the bregma point. Hereupon, an injection of 6-OHDA (10 μg/2 μL of ascorbic acid 0.1% v/v) was performed in the right striatum (ST) of each animal using the coordinates: medial-lateral (ML): −2 mm; anterior-posterior (AP): 0.6 mm; dorsoventral (DV): −3.0 mm, using a Hamilton syringe at speed of 0.2 μL/min. The delivery of 0.2 mg/kg/day of [Chol]2[N1(4)inh]+N1(4)inh+N1(4)inh was performed as describe above. […]
The results are expressed as a percentage of Saline (Group (1) which are animals exposed only to saline solution) and represented as the mean±SEM of at least 3 independent experiments (n=3-4). […]

[2] = tested on: N27 dopaminergic neuronal cells exposed to MPP+; conditions: 24 h (FIG. 8)
Source text: The data are presented as percentage of control as the mean±SEM of at least five repetitions of three independent experiments (n=3).

[3] = tested on: N27 dopaminergic neuronal cells exposed to 6OHDA; conditions: 20 μM pretreatment 2.5 h before 50 μM 6OHDA, 24 h (FIG. 7)
Method: as §1

NCCc1cc(O)c(O)cc1O [6OHDA, 6-hydroxydopamine]
cytotoxicity at 24 h, 50 µM (in vitro): 45% | reduction in the number of SN dopaminergic neurons [1]: 45%

C[n+]1ccc(-c2ccccc2)cc1 [MPP+, 1-methyl-4-phenylpyridinium]
loss of N27 cells viability ([2]; 10 μM MPP+): 45%

C[N+](C)(C)CCO.[Cl-] [cholinium chloride]
prevention of MPP+ dopaminergic neurotoxicity (cell viability) ([2]; 20 μM pretreatment 2.5 h before 10 μM MPP+): did not exert any protective effect | prevention of 6OHDA-induced neurotoxicity (cell viability) [3]: not prevented
